melting point | SMILES
72 to 74 °C | O=C1c2ccc(F)cc2CC1c1ccc(F)cc1 (stereo not given)
45 to 50 °C | CC(C)(C)[S@](=O)N1CCCC[C@@H]1c1ccccc1
255 to 256 °C | COc1cc(OC)c2c(=O)[nH]c(-c3cc(C)c(OCCO)c(C)c3)nc2n1
131 to 134 °C | CCOC(=O)C=Cc1c(C#N)cnn1-c1ccc(Cl)c(Cl)c1Cl
82 to 82.5 °C | CCN(c1ccccc1)c1ccc(C(=O)c2ccccc2)cc1N
150 to 153 °C | CSc1sc(C(=O)N(C)C2CCCCC2)c2c1-c1oncc1C(C)(C)C2
150 to 153 °C | O=C(C1CCCC1)N1c2ccccc2CCC1CN1CCN(c2cccc3[nH]ccc23)CC1 (stereo not given)
56 °C | O=C1CCCCCCCCCCCCC1
135 to 138 °C | COC(=O)COc1cc2c(c3c1cc(C)n3Cc1ccccc1)CCC2
182 to 185 °C | Cn1cccc1C(=O)NN(C(=O)c1ccccc1)C(C)(C)C
65 to 70 °C | O=[N+]([O-])c1cccc(/C=C/c2nc(C3CCCC3)cs2)c1
115 to 117 °C | CCc1nc2c(cnn2CC)c(NC2CCOCC2)c1CNC(=O)c1cc(C)cc(C(=O)NCc2ccc(OC)c(-c3cccc(CC4CCN(C)CC4)c3)c2)c1
60 to 62 °C | CCOC(=O)c1ccccc1COc1ccc(C=O)cc1
93 to 95 °C | CC(C)(C(=O)O)c1ccc(C(=O)CCCN2CCC(OC(c3ccccc3)c3ccccc3)CC2)cc1
110 to 111 °C | CCCc1c(OCCCCCCc2cc(O)c(O)cc2F)ccc(C(=O)O)c1O
168 to 169 °C | COC(=O)C(Cc1ccccc1)NC(=S)Nc1nc2ccccc2s1 (racemic)
180 to 182 °C | ClC1=Nc2cc(Cl)ccc2Oc2cscc21
100 °C | CC(C)(Cc1ccc(OC(F)(F)F)cc1)C(=O)C(C)(C)n1cncn1
205 to 206 °C | Brc1cccc(Br)c1OC1C=CC(Oc2c(Br)cccc2Br)C1 (stereo not given)

melting point | SMILES
110 to 112 °C | CNC(=C[N+](=O)[O-])NCCc1nnc(NCCCOc2cccc(CN3CCCCC3)c2)n1C
160 °C | CN1CCCC(c2cccc3c2CC(=O)N3)C1 (stereo not given)
89 to 91 °C | CC(Oc1ccc(F)cc1Cl)c1ccnc2ncnn12 (stereo not given)
102 °C | COC(=O)CCC(=O)c1ccccc1NC(=O)CCl
79 to 81 °C | CN(CC(O)c1cccc(O)c1)C(=O)c1cnc(N(C)C)nc1-c1ccccc1 (stereo not given)
96 to 98 °C | CCc1ncc(CCCOc2c(C)cc(-c3nnn(C)n3)cc2C)n1C
102 to 104 °C | CCN(c1nc(C)cc(C(=O)O)n1)c1ccc(C(C)C)cc1Br
245 °C | CC(=O)Nc1nc(C)c(S(=O)(=O)NN2CCN(C)CC2)s1
149 to 150 °C | NCCSc1c(S(=O)(=O)c2ccccc2)c2ccccc2n1Cc1ccccc1
165 °C | O=C1O[C@@H](CO)CN1c1ccc2ncccc2c1
134 °C | Cc1cc(I)cc(C=O)c1N
178 to 179 °C | COC(=O)c1cc(C(=O)O)cc(-n2cccc2)c1
115 to 120 °C | COc1ccccc1NC(=O)Nc1nc(Nc2ccccc2-c2ccccc2)nc(N(CCC(=O)O)CCc2c[nH]c3ccccc23)n1
212 to 213 °C | COc1ncnc2c1C(c1cccc([N+](=O)[O-])c1)C(C(=O)OC(C)C)=C(C)N2 (stereo not given)
70 to 72 °C | Cc1nn(CCN)c(C)c1Cc1cc(Cl)cc(Cl)c1
275 to 279 °C | COCCOc1ccccc1-c1cc2[nH]c3ccc(O)cc3c2c2c1C(=O)NC2=O
149 to 151 °C | COc1cc2ncc(NC3CCCCC3)nc2cc1OC
115 to 116 °C | CC(c1ccc(-c2ccccc2)c(F)c1)c1cc(N(C)C(=S)NC(=O)c2ccccc2)on1 (stereo not given)

SMILES | melting point
NCCc1ccc(OCc2ccccc2)c(NC(N)=O)c1 | 176 to 180 °C
CN1CC=C(c2c[nH]c3cc(Cl)c(Cl)cc23)CC1 | 255 to 257 °C
Clc1cccc2c1Oc1ccccc1NC2 | 71 to 73 °C
